Key:
[1] = target: 3',5'-cyclic-AMP phosphodiesterase 4A (Homo sapiens, UniProt P27815); assay: Inhibition of PDE4A1A (unknown origin)
[2] = target: T1, 3',5'-cyclic-AMP phosphodiesterase 4B (Homo sapiens, UniProt Q07343); assay: Inhibition of PDE4B1 (unknown origin)
[3] = target: T1, 3',5'-cyclic-AMP phosphodiesterase 4B; assay: Inhibition of PDE4B2 (unknown origin)
[4] = target: 3',5'-cyclic-AMP phosphodiesterase 4C (Homo sapiens, UniProt Q08493); assay: Inhibition of PDE4C1 (unknown origin)
[5] = target: 3',5'-cyclic-AMP phosphodiesterase 4D (Homo sapiens, UniProt Q08499); assay: Inhibition of PDE4D7 (unknown origin)

Measured: IC50

T1 sequence (Q07343 whole entry): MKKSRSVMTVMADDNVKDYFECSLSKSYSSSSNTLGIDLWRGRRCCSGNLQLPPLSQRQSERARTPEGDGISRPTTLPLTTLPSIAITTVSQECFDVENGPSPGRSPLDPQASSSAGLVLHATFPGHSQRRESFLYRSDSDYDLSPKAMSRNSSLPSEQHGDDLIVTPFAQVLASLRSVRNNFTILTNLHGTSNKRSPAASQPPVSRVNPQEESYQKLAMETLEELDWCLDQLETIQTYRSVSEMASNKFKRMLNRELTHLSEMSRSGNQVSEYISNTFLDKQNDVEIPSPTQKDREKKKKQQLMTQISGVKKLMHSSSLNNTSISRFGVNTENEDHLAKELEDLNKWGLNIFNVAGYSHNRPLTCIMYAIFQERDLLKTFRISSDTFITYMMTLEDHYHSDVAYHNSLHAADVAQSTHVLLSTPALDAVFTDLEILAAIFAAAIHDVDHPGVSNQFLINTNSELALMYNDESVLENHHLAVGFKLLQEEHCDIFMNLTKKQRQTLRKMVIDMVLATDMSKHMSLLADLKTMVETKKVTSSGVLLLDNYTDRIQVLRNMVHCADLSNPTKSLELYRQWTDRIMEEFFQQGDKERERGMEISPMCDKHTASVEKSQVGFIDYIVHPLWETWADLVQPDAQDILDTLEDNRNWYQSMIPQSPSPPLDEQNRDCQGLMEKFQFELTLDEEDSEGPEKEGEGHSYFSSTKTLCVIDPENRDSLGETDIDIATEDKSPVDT
Sequence of 3',5'-cyclic-AMP phosphodiesterase 4C (Q08493 whole entry): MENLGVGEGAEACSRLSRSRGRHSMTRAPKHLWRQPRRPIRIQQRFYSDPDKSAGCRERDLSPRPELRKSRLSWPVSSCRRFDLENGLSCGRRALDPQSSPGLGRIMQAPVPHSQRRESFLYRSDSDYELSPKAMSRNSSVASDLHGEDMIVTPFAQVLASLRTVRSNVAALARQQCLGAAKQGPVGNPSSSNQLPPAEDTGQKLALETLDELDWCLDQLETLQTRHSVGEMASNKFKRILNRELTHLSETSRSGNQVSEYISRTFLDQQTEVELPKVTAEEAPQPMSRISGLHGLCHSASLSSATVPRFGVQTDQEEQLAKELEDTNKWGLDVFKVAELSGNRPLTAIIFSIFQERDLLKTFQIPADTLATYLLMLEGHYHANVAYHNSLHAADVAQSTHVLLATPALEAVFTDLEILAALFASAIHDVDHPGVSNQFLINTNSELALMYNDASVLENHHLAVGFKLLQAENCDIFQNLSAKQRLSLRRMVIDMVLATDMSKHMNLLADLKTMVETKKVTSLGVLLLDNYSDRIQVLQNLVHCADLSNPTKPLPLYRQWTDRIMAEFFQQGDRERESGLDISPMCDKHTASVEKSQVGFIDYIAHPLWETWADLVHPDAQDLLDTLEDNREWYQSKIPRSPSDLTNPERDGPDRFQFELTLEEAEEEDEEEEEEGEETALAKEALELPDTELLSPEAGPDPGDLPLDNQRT
Sequence of 3',5'-cyclic-AMP phosphodiesterase 4D (Q08499 whole entry): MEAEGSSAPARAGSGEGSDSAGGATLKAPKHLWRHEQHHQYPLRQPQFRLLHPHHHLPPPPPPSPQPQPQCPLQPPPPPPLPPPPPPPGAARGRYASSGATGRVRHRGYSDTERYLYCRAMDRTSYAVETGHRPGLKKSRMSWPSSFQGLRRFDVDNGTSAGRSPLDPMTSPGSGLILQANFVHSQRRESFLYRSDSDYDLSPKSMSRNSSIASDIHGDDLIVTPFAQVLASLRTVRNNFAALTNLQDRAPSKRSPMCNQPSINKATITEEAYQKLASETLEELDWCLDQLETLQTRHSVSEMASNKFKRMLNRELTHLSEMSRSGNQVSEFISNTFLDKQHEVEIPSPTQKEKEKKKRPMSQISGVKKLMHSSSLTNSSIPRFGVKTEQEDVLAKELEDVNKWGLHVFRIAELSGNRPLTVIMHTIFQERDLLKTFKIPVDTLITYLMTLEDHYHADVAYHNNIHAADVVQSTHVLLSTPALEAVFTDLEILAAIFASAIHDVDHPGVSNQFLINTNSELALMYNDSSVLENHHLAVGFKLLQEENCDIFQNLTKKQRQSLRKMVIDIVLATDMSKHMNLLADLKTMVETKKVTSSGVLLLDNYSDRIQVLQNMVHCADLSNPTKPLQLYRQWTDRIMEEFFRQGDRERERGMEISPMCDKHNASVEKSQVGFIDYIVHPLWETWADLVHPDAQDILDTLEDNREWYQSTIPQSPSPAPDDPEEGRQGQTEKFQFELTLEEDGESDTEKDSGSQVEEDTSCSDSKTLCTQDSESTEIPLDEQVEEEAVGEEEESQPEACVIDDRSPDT
Sequence of 3',5'-cyclic-AMP phosphodiesterase 4A (P27815 whole entry): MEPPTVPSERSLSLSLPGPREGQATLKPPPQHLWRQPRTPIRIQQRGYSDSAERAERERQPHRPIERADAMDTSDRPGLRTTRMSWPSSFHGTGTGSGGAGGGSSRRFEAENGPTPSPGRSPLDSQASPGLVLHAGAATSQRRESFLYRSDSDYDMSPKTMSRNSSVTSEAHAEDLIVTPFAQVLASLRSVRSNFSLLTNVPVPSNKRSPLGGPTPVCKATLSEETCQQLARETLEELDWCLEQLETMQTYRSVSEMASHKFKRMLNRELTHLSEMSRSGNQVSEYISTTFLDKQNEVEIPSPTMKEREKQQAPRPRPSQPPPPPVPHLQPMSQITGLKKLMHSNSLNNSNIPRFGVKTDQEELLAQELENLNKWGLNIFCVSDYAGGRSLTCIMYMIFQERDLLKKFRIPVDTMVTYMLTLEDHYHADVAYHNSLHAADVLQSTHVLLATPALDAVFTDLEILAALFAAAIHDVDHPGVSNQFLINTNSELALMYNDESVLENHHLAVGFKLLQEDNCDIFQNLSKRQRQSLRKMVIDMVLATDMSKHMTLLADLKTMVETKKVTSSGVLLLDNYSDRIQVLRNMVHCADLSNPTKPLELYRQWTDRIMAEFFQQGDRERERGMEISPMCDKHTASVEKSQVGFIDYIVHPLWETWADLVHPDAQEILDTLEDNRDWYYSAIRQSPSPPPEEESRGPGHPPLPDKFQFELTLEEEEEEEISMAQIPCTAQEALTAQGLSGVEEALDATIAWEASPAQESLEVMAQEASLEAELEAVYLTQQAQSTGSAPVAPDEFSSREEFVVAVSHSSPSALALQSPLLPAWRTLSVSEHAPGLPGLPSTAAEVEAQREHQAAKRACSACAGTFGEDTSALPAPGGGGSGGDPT

N#Cc1ccc(Oc2ccc3c(c2)COB3O)cc1 [CRISABOROLE]
55 to 340 nM: [1] | [2] | [3] | [4] | [5]

Reference: ChEMBL document CHEMBL4270575, “Lead-like Drugs: A Perspective” (J Med Chem, 2018)
